According to article PMC6368403, “Identification of a bilirubin receptor that may mediate a component of cholestatic itch” (eLife, 2019):
Values joined by “and” are separate entries in the source; they are usually repeats but may differ in a detail not shown here. Equal entries are not always repeated.

Key:
MRGPRC11 = molecular target: T1, MRGPRC11 (Mus musculus, UniProt Q8CIP3); assay: [35S]GTPγS binding to MRGPRC11 membrane complexes; assay type: biochemical; details: 50 μM bilirubin
T1 construct: expressed in transfected cells
T1 sequence (Q8CIP3 1-322): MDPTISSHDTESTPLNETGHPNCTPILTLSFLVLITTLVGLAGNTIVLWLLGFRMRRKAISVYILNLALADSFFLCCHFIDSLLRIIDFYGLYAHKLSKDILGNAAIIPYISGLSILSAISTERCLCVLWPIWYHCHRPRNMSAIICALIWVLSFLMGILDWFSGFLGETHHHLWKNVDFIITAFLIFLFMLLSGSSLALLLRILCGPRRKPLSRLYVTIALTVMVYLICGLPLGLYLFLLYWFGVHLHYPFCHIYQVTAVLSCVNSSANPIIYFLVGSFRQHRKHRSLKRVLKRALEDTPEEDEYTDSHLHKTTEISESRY
Description: MRGPR activation was determined by measuring binding of a radiolabelled and non-hydrolyzable form of GTP, [^35S]guanosine-5’-(γ-thio)triphosphate ([^35S]GTPγS) as previously described ([Vasavda et al., 2017]). Briefly, 10 µg of crude membrane fractions were diluted into 175 µL assay buffer (50 mM HEPES, 5 mM MgCl2, 100 mM NaCl, 1 mM EDTA, 0.1% […]) supplemented with 10 µM GDP and incubated at room temperature for 5 min. Membranes were then incubated an additional 1 min in a final volume of 199 μL assay buffer supplemented with 50 μM bilirubin. Samples were then brought to 200 μL with the addition of 10 nM [^35S]GTPγS. Samples were incubated for 2 hr at 4°C with gentle agitation. The experiment was terminated by rapid filtration onto GF/B filters and washed three times with wash buffer (50 mM Tris-HCl, 5 mM MgCl2, and 50 mM NaCl at pH 7.4). Filters were then immersed in scintillation cocktail and counted. Nonspecific binding was determined by competition with 10 μM unlabelled GTPγS. GTPγS binding assays were performed as two independent experiments, in triplicate.

DRG sensory neurons = assay: In vivo DRG calcium imaging in Pirt-Cre; lsl-GCaMP6s animals; design: species or system mouse; details: 5 μL of 100 μM bilirubin into the paw of GCaMP6s mice
Description: Adult mice expressing Pirt-Cre and lox-stop-lox GCaMP6s were anesthetized by i.p. injection of chloral hydrate (20 μl/gram of 25 mg/ml solution). The back was shaved and disinfected with alcohol before application of ophthalmic ointment (Lacrilube; Allergen Pharmaceuticals). A dorsal laminectomy was performed below the lumbar enlargement (L5) targeting S1. During the procedure, care was taken to keep dura intact. A 2 cm incision was made at the lumbar enlargement. 0.1 mL of 1% lidocaine was injected into paravertebral muscles before dissection to expose L3–L5 vertebrae. Using rongeurs, the surface aspect of the L4 DRG transverse process was removed and the underlying DRG exposed. Mice were laid abdomen-down on a custom-designed microscope stage and the spinal column was secured at two sites using clamps. Images were acquired using a laser-scanning confocal microscope (Leica LSI microscope) equipped with a […] 0.5 NA macro dry objective and fast EM-CCD camera. Live images were acquired at 8 to 10 frames in frame-scan mode per 7–8 s, at depths of […] below the dura with the DRG in the focal plane. […]
Raw image stacks were collected, deconvoluted, and imported into ImageJ (NIH). […] Calcium signaling amplitudes were expressed as Ft /F0 as a function of time. […]

DRG neurons = assay: Ca2+ imaging of cultured DRG neurons; assay type: cell-based, mouse; details: for Percent activated neurons: 50 µM bilirubin (Fig 3H)
Description: All cultured cells were maintained in DMEM supplemented with 10% FBS and 1% Penicillin/Streptomycin at 37°C, 5% CO2. […] Cells were imaged in calcium imaging buffer (CIB; 10 mM HEPES, 1.2 mM NaHCO3, 130 mM NaCl, 3 mM KCl, 2.5 mM CaCl2, 0.6 mM MgCl2, 20 mM glucose, and 20 mM sucrose at pH 7.4 and 290–300 mOsm). To monitor changes in intracellular [Ca^2+] ([Ca^2+]i), cells were loaded with either Fura 2-AM (HEK293 cells) or Fluo 4-AM (DRG neurons and mast cells) for 30 min in the dark at 37°C in CIB just prior to imaging. With Fura 2-AM, emission at 510 nm was monitored from excitation at both 340 nm and 380 nm. With Fluo 4-AM, emission at 520 nm was monitored from excitation at 488 nm. Cells were identified as responding if the intracellular [Ca^2+] rose by either 50% compared to baseline or 50% compared to the [Ca^2+]i change assayed during addition of 50 mM KCl (neurons only). Damaged, detached, high-baseline, and motion-activated cells were excluded from analysis.
DRGs were incubated with Fluo-4 AM 24 hr after dissociation (native genotype) or 48 hr after dissociation (virally transduced). Unless otherwise noted, cells were imaged for 20 seconds to establish a baseline before compounds were added. After 30 s, a 2 min wash was applied before addition of another substances. At the end of every imaging trial, 50 mM KCl was added as a positive control. […] For ruthenium red inhibitor experiments, neurons were incubated with 10 µM ruthenium red for 5 min prior to imaging. Percentage activated was determined as earlier described.
DRG neurons from all spinal levels were collected in cold DH10 media (90% Dulbecco’s modified Eagle’s medium (DMEM)/F-12, 10% FBS, penicillin (100 U/mL), and streptomycin (100 μg/mL)). DRGs were digested with a dispase (5 mg/ml)/collagenase type I (1 mg/ml) enzyme mixture at 37°C for 45 min. After trituration, cells were spun at 300 g and re-suspended in DH10 before being plated on glass coverslips coated with poly-D-lysine (0.5 mg/ml) and laminin (10 μg/ml, Invitrogen). DRGs were cultured with DH10 supplemented with 50 ng/mL NGF at 37°C.

GTP binding to MRGPRC11 membrane complexes (MRGPRC11): not to MRGPRC11
[35S]GTPγS binding (MRGPRC11; MRGPRC11 membrane complexes (Fig 2K)): 75 and 84 and 78
Structure (SMILES): C=CC1=C(C)/C(=C/c2[nH]c(Cc3[nH]c(/C=C4\NC(=O)C(C)=C4C=C)c(C)c3CCC(=O)O)c(CCC(=O)O)c2C)NC1=O [bilirubin, bilirubin IXα]
Activation of DRG sensory neurons in vivo (DRG sensory neurons): activated numerous DRG sensory neurons
Percent activated neurons (DRG neurons; A1 KO DRG): 1.8%
Percent activated neurons (DRG neurons; Mrgpr-cluster KO DRG): 1.9%
Percent activated A3+ neurons (DRG neurons; Tg(Mrgpra3-Cre);lsl-tdTomato neurons, 50 µM bilirubin (Fig 4D)): 51.4%
Percent activated neurons (DRG neurons; WT DRG): approximately 5%
Percent activated neurons (DRG neurons; WT DRG, listed as Bilirubin): 5.43%
